Results from patent US20040110821A1, “GAL3 receptor antagonists for the treatment of affective disorders” (priority 2002, published 2004).

Key:
[1] = tested on: Male albino Sprague-Dawley rats; assay: Rat Social Interaction Test (SIT); type: in vivo; settings: for overall profile in the Social Interaction Test (conclusion in words): rat, in vivo
Description: Rats were allowed to acclimate to the animal care facility for 5 days and were housed singly for 5 days prior to testing. Animals were handled for 5 minutes per day. The design and procedure for the Social Interaction Test was carried out as previously described by Kennett, et al. (1997). On the test day, weight matched pairs of rats (±5%), unfamiliar to each other, were given identical treatments and returned to their home cages. Animals were randomly divided into 5 treatment groups, with 5 pairs per group, and were given one of the following i.p. treatments: Example 92 (10, 30 or 100 mg/kg), vehicle (1 ml/kg) or chlordiazepoxide (5 mg/kg). Dosing was 1 hour prior to testing. Rats were subsequently placed in a white perspex test box or arena (54×37×26 cm), whose floor was divided up into 24 equal squares, for 15 minutes. An air conditioner was used to generate background noise and to keep the room at approximately 74° F. All sessions were videotaped using a JVC camcorder (model GR-SZ1, Elmwood Park, N.J.) with either TDK (HG ultimate brand) or Sony 30 minute videocassettes. All sessions were conducted between 1:00-4:30 P.M. Active social interaction, defined as grooming, sniffing, biting, boxing, wrestling, following and crawling over or under, was scored using a stopwatch (Sportsline model no. 226, 1/100 sec. discriminability). The number of episodes of rearing (animal completely raises up its body on its hind limbs), grooming (licking, biting, scratching of body), and face washing (i.e. hands are moved repeatedly over face), and number of squares crossed were scored. Passive social interaction (animals are lying beside or on top of each other) was not scored. All behaviors were assessed later by an observer who was blind as to the treatment of each pair. At the end.of each test, the box was thoroughly wiped with moistened paper towels.
Male albino Sprague-Dawley rats (Taconic Farms, N.Y.) were housed in pairs under a 12 hr light dark cycle (lights on at 0700 hrs.) with free access to food and water.
Example 92 was dissolved in 100% DMSO (Sigma Chemical Co., St. Louis, Mo.). Chlordiazepoxide (purchased from Sigma Chemical Co., St. Louis, Mo.) was dissolved in double distilled water. The vehicle consisted of 50% DMSO (v/v). All drug solutions were made up 10 minutes prior to injection and the solutions were discarded.
Example 34 was dissolved in 5% lactic acid, v/v. The vehicle consisted of 100% dimethylacetamide (DMA) and this was used to make up all drug solutions. All drug solutions were made up fresh each day and any unused solutions were discarded at the end of the test day. The volume of drug solution administered was 1 ml/kg.
The social interaction data (time interacting, rearing and squares crossed) were subjected to a randomized, one-way ANOVA and post hoc tests conducted using the Student-Newman-Keuls test. The data were subjected to a test of normality (Shapiro-Wilk test). The data were analyzed using the GBSTAT program, version 6.5 (Dynamics Microsystems, Inc., Silver Spring, Md., 1997). All data are presented as means ±S.E.M.

human 5HT2A receptor = target: T1, human 5HT2A receptor (Homo sapiens, UniProt P28223); assay: Radioligand binding at human 5HT2A receptor; settings: read-out: h5HT2A Ki
T1 construct: expressed in transfected cells; host or cells: COS-7 cells, transient, vector pCEXV-3
Description: Human 5HT2; Receptor: The coding sequence of the human 5HT2A receptor was obtained from a human brain cortex cDNA library, and cloned into the cloning site of pCEXV-3 eukaryotic expression vector. This construct was transfected into COS-7 cells by the DEAE-dextran method (Cullen, 1987). Cells were harvested after 72 hours and lysed by sonication in 5 mM Tris-HCl, 5 mM EDTA, pH 7.5. The cell lysates were subjected to centrifugation at 1000 rpm for 5 minutes at 4° C., and the supernatant was subjected to centrifugation at 30,000×g for 20 minutes at 4° C. The pellet was suspended in 50 mM Tris-HCl buffer (pH 7.7 at room temperature) containing 10 mM MgSO4, 0.5 mM EDTA, and 0.1% ascorbate. The affinity of compounds at 5HT2A receptors were determined in equilibrium competition binding assays using [^3H]ketanserin (1 nM). Nonspecific binding was defined by the addition of 10 μM mianserin. The bound radioligand was separated by filtration through GF/B filters using a cell harvester.
Binding data were analyzed using nonlinear regression and statistical techniques available in the GraphPAD Prism package (San Diego, Calif.). Enzymatic assay data were derived from a standard curve of reference compound data.

T1 sequence (P28223 whole entry): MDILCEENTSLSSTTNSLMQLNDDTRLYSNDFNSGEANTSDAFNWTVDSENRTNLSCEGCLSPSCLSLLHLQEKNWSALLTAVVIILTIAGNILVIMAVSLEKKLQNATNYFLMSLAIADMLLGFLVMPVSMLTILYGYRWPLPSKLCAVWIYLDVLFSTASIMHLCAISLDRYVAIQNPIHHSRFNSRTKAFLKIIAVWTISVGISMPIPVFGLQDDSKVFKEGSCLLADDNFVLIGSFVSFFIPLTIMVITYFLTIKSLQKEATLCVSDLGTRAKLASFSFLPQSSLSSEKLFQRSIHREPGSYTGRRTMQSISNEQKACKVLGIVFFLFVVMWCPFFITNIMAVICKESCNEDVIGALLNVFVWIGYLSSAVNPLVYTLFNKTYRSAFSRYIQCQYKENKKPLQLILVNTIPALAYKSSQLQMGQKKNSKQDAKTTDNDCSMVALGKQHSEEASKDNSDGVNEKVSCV

SMILES	overall profile in the Social Interaction Test (conclusion in words) [1]	Ki (human 5HT2A receptor) [µM]	ataxia or sedation accompanying decreased locomotor activity ([1]; 100 mg/kg i.p.)	social interaction of familiar cage mates ([1]; familiar cage mates, another study (not reported))	stereotypes or aggressive behaviors ([1]; i.p., Social Interaction Test)
Cc1ccc(Nc2cc(N3CCCCC3)nc(N3CCN(c4ncccc4C(F)(F)F)CC3)n2)cc1 [Example 34]	produces an anxiolytic-like action in the social interaction test	> 50			
O=C1C(=Nc2cccc(C(F)(F)F)c2)c2ccccc2N1c1ccccc1 [Example 92, 1-PHENYL-3-[[3-(TRIFLUOROMETHYL)PHENYL]IMINO]-1,3-DIHYDRO-2H-INDOL-2-ONE]	has the profile of an anxiolytic-like drug in the Social Interaction Test	> 50	did not appear to be accompanied by ataxia or sedation	no significant increase in interaction	did not elicit stereotypes or produce aggressive behaviors
